Results as given in article PMC4436593, “Endoplasmic reticulum stress-independent activation of unfolded protein response kinases by a small molecule ATP-mimic” (eLife, 2015).

How the values were obtained:
PERK (535–1093 Δ660–868) = molecular target: T1, PERK (535–1093 Δ660–868) (Homo sapiens, UniProt Q9NZJ5, DEL660-868); assay: In vitro PERK activation assay (rate of eIF2α phosphorylation by dephosphorylated tag-free PERK cytosolic domain); type: biochemical
T1 construct: GST (N, cleaved yes); made in house; host or cells: E. coli BL21 star (DE3), co-expressed with lambda phosphatase
T1 sequence (Q9NZJ5 with tags, fused parts or gaps DEL660-868): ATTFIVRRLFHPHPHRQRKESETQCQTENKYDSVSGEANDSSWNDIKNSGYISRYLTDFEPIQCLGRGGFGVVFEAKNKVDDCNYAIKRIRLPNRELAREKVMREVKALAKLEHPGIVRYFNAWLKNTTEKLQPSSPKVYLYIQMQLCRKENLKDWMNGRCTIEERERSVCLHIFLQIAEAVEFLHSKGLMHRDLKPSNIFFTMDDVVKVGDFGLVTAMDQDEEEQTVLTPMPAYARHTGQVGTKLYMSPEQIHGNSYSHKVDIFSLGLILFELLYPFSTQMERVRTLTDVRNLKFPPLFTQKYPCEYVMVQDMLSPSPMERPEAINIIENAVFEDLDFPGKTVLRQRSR
Source text: To address directly whether PERK activation resulted from IPA binding to PERK itself, we recombinantly expressed the cytosolic portion of human PERK and eIF2α, the only known PERK substrate, and reconstituted the phosphorylation reaction in vitro. To this end, the cytosolic portion of PERK was dephosphorylated and then proteolytically severed and chromatographically separated from its glutathione S-transferase tag, known to promote-constitutive multimerization. The resulting PERK cytosolic fragment was responsive to activation, by contrast to the constitutively active, phosphorylated PERK-GST fusion protein assayed in Figure 4—figure supplement 1.
Full-length cytosolic human PERK was codon-optimized for E. coli expression by Genewiz Inc. A construct was then cloned into a Pgex-6p-2 vector for expression using two rounds of In-Fusion cloning (Clontech) (535–1093 Δ660–868). The cytosolic portion of PERK, lacking the unstructured loop region (amino acids 535–1093 Δ660–868) was then co-expressed with a tagless lambda phosphatase to produce a fully dephosphorylated PERK protein in BL21 star (DE3) (Life Technologies) ([Dar et al., 2008]). Cells were grown to an OD600 of 0.5 before induction with 0.1 mM IPTG at 15°C for 25 hr. Cells were harvested and lysed using AVESTIN Emulsiflex-C3 in a buffer containing 50 mM Tris-HCl, pH 8.0, 500 mM NaCl, 10% glycerol, 5 mM TCEP (buffer A), and EDTA-free COMPlete protease inhibitor cocktail (Roche). Lysate was cleared by centrifugation at 100,000×g before batch binding to a GST-Sepharose resin. The resin was washed 5× times with buffer A, and on-column tag cleavage was preformed using PreScission protease (GE Healthcare). The protein was loaded onto a HiTrap Q HP column to remove remaining protease. The PERK (535–1093 Δ660–868) protein was then concentrated and fractionated on a Superdex 200 GL (GE Healthcare) to remove uncleaved GST-PERK protein.
PERK activation was measured using PERK (535–1093 Δ660–868) in a buffer containing 20 mM Tris-HCl, 150 mM NaCl, 4 mM MgCl2, 5 mM TCEP, 1% glycerol, pH 8.0. PERK concentration was 1 μM, and activity was measured at 30°C. PERK was pre-incubated with 50 μM of cold ATP in the presence or absence of IPA or IPAx. The reaction was then initiated by adding S. cerevisiae eIF2α (1–180) and 0.2 mCi γ-[^32P]-ATP. The reaction was monitored over a time course of 30 min, during which 1/6 of the reaction volume was removed at 0.5, 1, 5, 10, 20, and 30 min and stopped in Laemmli buffer supplemented with 50 mM EDTA. […] Gels were quantified using ImageQuant software and data were processed using SigmaPlot software package. Rates were determined using non-linear regression. Experiments were performed 3 times, and mean errors were determined.

[1] = molecular target: T2, PERK cytosolic domain (535–1093 Δ660–868) (Homo sapiens, UniProt Q9NZJ5, DEL660-868); assay: In vitro PERK cross-linking assay; type: biochemical; details: PERK 2 μM; IPAx 50 μM
T2 construct: GST (N, cleaved yes); made in house; host or cells: E. coli BL21 star (DE3), co-expressed with lambda phosphatase
T2 sequence (Q9NZJ5 with tags, fused parts or gaps DEL660-868): T1 sequence (Q9NZJ5 with tags, fused parts or gaps DEL660-868)
Protocol: A solution of PERK cytosolic domain (535–1093 Δ660–868) (2 μM) was incubated with IPA or IPAx for 15 min before the addition of 250 μM of the amino group-reactive cross-linking agent bis[sulfosuccinimidyl] […] (BS2g-d0, Thermo Scientific). After 30-min incubation at room temperature Tris-HCl pH 7.5 was added to a final concentration of 55 mM. Samples were then boiled in Laemmli sample buffer and loaded into an Any kD Mini-protean TGX gel (Bio Rad). Cross-linked protein was visualized using Colloidal Coomassie G-250 stain.

[2] = system: PERK and eIF2α phosphorylation in HEK293T cells; assay: PERK mobility shift and eIF2α phosphorylation by immunoblotting in HEK293T cells; type: cell-based
Protocol: To evaluate effects of IPA on the PERK branch, we measured the phosphorylation state of PERK and eIF2α by Western blotting. […] We also monitored PERK activation by phosphorylation of eIF2α, detected with a phospho-eIF2α-specific antibody (Figure 3C).
Cells were lysed in 50 mM Tris-HCl, 2% SDS, 10% glycerol, 0.01% bromophenol blue, pH 6.8 supplemented with phosphatase inhibitors (Sigma) and protease inhibitors (Roche). 30 μg to 50 μg of total protein was loaded on each lane of 8% or 10% SDS-PAGE gels. The separated proteins were then transferred onto nitrocellulose membranes for immunoblotting. The following antibodies and dilutions were used: anti-β-actin 1:10,000 (A5441, Sigma), anti-total PERK at 1:1000 (C33E10, Cell Signaling Technology), anti-phospho eIF2α at 1:1000 (3597S, Cell Signaling Technology), anti-total eIF2α at 1:1000 (L57A5, Cell Signaling Technology). After overnight incubation with primary antibody, membranes were washed in PBS with 0.05% Tween and incubated in HRP-coupled secondary antibody anti-rabbit (611–1302, Rockland) or anti-mouse (610–1302, Rockland) diluted at 1:5000 in wash buffer. Immunoreactive bands were detected by chemiluminescence.

effect on the rate of PERK activity (PERK (535–1093 Δ660–868); IPAx 20 μM)	PERK activation in vitro (PERK (535–1093 Δ660–868); IPAx 0.3 and 0.5 μM, normalized to DMSO control)	SMILES	PERK oligomerization (cross-linked dimers, trimers, tetramers) [1]	PERK or eIF2α phosphorylation ([2]; 4 hr, 1 µM)	fold change in rate of eIF2α phosphorylation by PERK (maximal activation) (PERK (535–1093 Δ660–868); 0.5 μM (500 nM) IPA, normalized to DMSO control, PERK 1 μM) [fold]	fold change in rate of eIF2α phosphorylation by PERK (inhibitory concentration) (PERK (535–1093 Δ660–868); 3 μM IPA, normalized to DMSO control) [fold]	Tm activation of PERK in the presence of compound ([2]; 4 μM IPA + Tm 2 µg/ml)	PERK phosphorylation (mobility shift), paralleled by eIF2α phosphorylation ([2]; 4 hr, 0.1, 0.5, and 1 µM)	PERK phosphorylation (mobility shift), paralleled by eIF2α phosphorylation ([2]; 4 hr, 2 and 4 μM)	reversibility of PERK inhibition (wash-out) ([2]; IPA wash-out then Tm)
showed no effect	No activation was observed	CSc1ccc(NC(=O)Nc2ccc(Nc3nccc(Nc4cc(C5CC5)n(C)n4)n3)cc2)cc1 [IPAx]	showed no effect	did not stimulate PERK or eIF2α phosphorylation						
		CSc1ccc(NC(=O)Nc2ccc(Nc3nccc(Nc4cc(C5CC5)[nH]n4)n3)cc2)cc1 [IPA]	significantly increased PERK oligomerization		3.3	0.31	Tm addition did not activate PERK	induced a shift in the mobility of PERK	severely diminished or not detectable	reversible
